{
  "source": "patent US20150038526A1",
  "about": "“FLUORINE-CONTAINING 5-[2-(PYRID-3-YL)-ETHYL]-2,3,4-TETRAHYDRO-1H-PYRIDO[4,3-B]INDOLES AS AGENTS FOR REDUCING UNCONTROLLED PROTEIN AGGREGATION” (FEDERALNOE GOSUDARSTVENNOE BUDZHETNOE UCHREZHDENIE NAUKI …, priority 2011, published 2015)",
  "origin": "cited, not measured here",
  "tested_on": "gamma-synuclein protein",
  "settings": "tissues of the nervous system of model animals",
  "data": [
    {"smiles": "Cc1ccc2c(c1)c1c(n2CCc2ccc(C)nc2)CCN(C)C1", "note": "[Dimebon]", "values": [
      {"measurement": "formation and/or elimination of amyloid-like inclusions formed by gamma-synuclein", "result": "modulates the molecular cellular processes of formation and/or elimination of pathological protein depositions"}
    ]}
  ]
}
